According to publication PMC6560211, “ApoAI-derived peptide increases glucose tolerance and prevents formation of atherosclerosis in mice” (Diabetologia, 2019):
No end group written: not given here.

Columns and labels:
[1] = Peptide stability in physiologic buffer or blood plasma; format: in vitro ADME; conditions: after denaturation/refolding; phosphate buffer, human plasma (citrate, pooled from four donors) or mouse CD-1 plasma (heparin); over 2 h; LC-MS/MS
Experimental: Peptide (lyophilised powder) produced by Red Glead (Lund, Sweden) was reconstituted in Milli-Q water and then either used directly or mixed in a 1:1 ratio with 6 mol/l guanidine HCl in 2× PBS to give a monodisperse solution, followed by desalting using a column equilibrated with PBS, pH 7.4, using ÄKTAxpress fast protein LC (GE Healthcare, Uppsala, Sweden). Peptide integrity was analysed using circular dichroism spectroscopy. Peptide solubility was assayed at Red Glead using HPLC. Peptide stability in physiologic buffer or blood plasma (human or mouse) over 2 h was assayed at the Science for Life Laboratory (Uppsala, Sweden). […]
Peptide concentration was determined at 205 nm using a NanoDrop 2000c spectrophotometer (Thermo Scientific) and integrity was analysed by Tris-Tricine SDS-PAGE followed by coomassie staining or by circular dichroism spectroscopy (CD). […]
The primary goal of this study was to investigate the anti -diabetic and anti-atherosclerotic efficacy of a novel ApoA -I derived peptide. Using a range of in vitro models, we assessed the effects of the peptide on HDL formation, cholesterol efflux, insulin secretion, and non -insulin dependent glucose uptake. […] Peptide effects were measured relative to full length ApoA -I and vehicle controls. […]
Supernatants were recovered and insulin secretion was analysed by ELISA (Mercodia). […]

[2] = test system: J774 macrophages; test: Cholesterol efflux assay; format: cell-based, mouse
Experimental: The mouse macrophage-like cell line J774 (ATCC TIB-67), loaded with ^3H-cholesterol, was used for cholesterol efflux to acceptors (RG54 or ApoA-I) as previously described.
To investigate the functionality of the RG54 peptide in a physiological context, cholesterol efflux from J774 macrophages was employed. Cultured macrophages were loaded with radioactive cholesterol, then incubated for 2 or 4 h with RG54 peptide or ApoA-I at the shown concentrations, followed by quantification of the amount of effluxed ^3H-cholesterol (Fig. 1a,b). […] As most circulating ApoA-I is bound to lipids in various species of HDL, and as the RG54 peptide was shown in the lipid clearance assay to efficiently associate with lipids, we reasoned that lipidation of the RG54 peptide might improve its catalytic activity. To explore this, RG54 was first incubated with lipids as described in ESM Fig. 4d, followed by comparative analyses of the catalytic capacities in cholesterol efflux from cholesterol-loaded macrophages.
Fig. 1 Cholesterol efflux activity of RG54 compared with ApoA-I. (a, b) Concentration dependence of cholesterol efflux from ^3H-cholesterol-labelled J774 cells by lipid-free RG54 or ApoA-I was measured after 2 h (a) or 4 h (b). n=5 for both. Vmax (c) and KM (d) were calculated using the Michaelis–Menten equation. (e–g) Efflux activity of lipid-free (LF) and lipid-bound (LB) RG54 was compared after 2 h. n=3. An acyl CoA:cholesterol O-acyltransferase (ACAT) inhibitor and 8-(4-chlorophenylthio; CPT)-cAMP were used in all experiments to prevent formation of cholesteryl esters of ^3H-cholesterol and to induce expression of ABCA1, respectively. Values are means ± SEM. **p≤0.01, ***p≤0.001

## Ac-AEYHAKATEHLSTLSEKAKPALEDLRQGLLPVLESFKVSFLSALEEYTKKLNTQ [RG54]
[1]
  peptide integrity by peptide stability assays (buffer or plasma): confirmed
[2]; RG54 first incubated with lipids (DMPC), 2 h, n=3
  Vmax of cholesterol efflux, lipid-bound vs lipid-free: twofold increase
[2]; lipid-free RG54 compared with ApoA-I, Michaelis-Menten, n=5
  Vmax of cholesterol efflux: significantly lower
[2]; lipid-free, 3H-cholesterol-loaded J774, 2 or 4 h, ACAT inhibitor and CPT-cAMP, n=5
  cholesterol efflux: dose-dependent manner
